Source: PMC8129988 (Inorganic Chemistry Frontiers, 2021)
Structures can show the parent of a compound that is named as a salt.

Experiments:
Type in all cases: cell-based, human
[1] = test system: UM-UC-14 cells; assay: MTT vitality assay, 72 h; conditions: TFA up to 25 μM
Protocol: The sensitizing effect in this cell model was more pronounced for Co(acac)2LPonvs.Co(Meacac)2LPon reflecting the differences in the reduction potentials. Purification of the novel compounds was performed in the presence of 0.1% TFA, leading to the respective TFA salts.
As mentioned above, two stereoisomers of Co(acac)2LPon could be isolated. To clarify, whether there are differences in their anticancer activity, they were analyzed (in addition to the isomeric mixture) in UM-UC-14 cells by MTT assay. […] Accordingly, values for the isomeric mixture positioned intermediate. As expected, both stereoisomers and the isomeric mixture were distinctly activated by hypoxic conditions. The moderately higher activity of isomer 1 remained also under hypoxic conditions (Fig. S12A ^†). […]
Cells were seeded (3–7 × 10^4 cells per well) in 96-well plates and after 24 h recovery treated with increasing concentrations of compounds in triplicates. After 72 h drug exposure under normoxic or hypoxic cell culture conditions (0.1% O2) (ProOx Model C21 system, BioSpherix), the proportion of viable cells was determined by 3-(4,5-dimethylthiazol-2-yl)-2,5-diphenyltetrazolium bromide (MTT)-vitality assay (EZ4U, Biomedica, Vienna, Austria) or by luminescence assay based on adenosine triphosphate quantification (CellTiter-Glo, Promega, Madison, Wisconsin) following the manufacturer's recommendations. […]

[2] = test system: FGFR3-driven UM-UC-14 urothelial cancer cell model; assay: colony formation assay, 5 d; conditions: normoxic
Protocol: In order to investigate the impact of long-term oxygen restriction, clonogenic assays were performed in the FGFR3-dependent UM-UC-14 cell model (Fig. 9C).
UM-UC-14 cells were seeded at low densities of 3 × 10^3 cells per well in 24-well plates in 500 μL and after 24 h recovery treated with 100 μL of increasing concentrations of compounds in duplicates. Following drug exposure time of 5 days under normoxic or hypoxic (0.1% O2) culture conditions, cells were washed with phosphate-buffered saline (PBS), fixed with ice-cold methanol for 30 min at 4 °C and stained with crystal violet. Digital photographs were taken using a Nikon D3200 camera and processed with ImageJ software. For quantification, crystal violet was eluted using 2% sodium dodecyl sulfate (SDS) and color absorbance was measured at 560 nm at the Tecan infinite 200Pro (Zurich, Switzerland). Values are given in arbitrary units (a.u.) as mean ± SD normalized to untreated control.

[3] = test system: p-ERK1/2 and p-S6 in K-562 cells; assay: western blot of downstream signalling, 12 h; conditions: K-562, 12 h, western blot
Protocol: Fig. 10 Impact of the cobalt(III) complexes on the ERK1/2 and S6 under normoxic and hypoxic conditions. K-562 cells were treated with the compounds, after 12 h cell lysates were prepared and protein expression as well as phosphorylation levels of downstream pathways (p-ERK1/2 and p-S6) analyzed by western blotting. One representative experiment out of three is shown. The ratio of phosphorylated to total protein is given between the respective lanes.
K-562 cells were plated (5 × 10^5 cells per well) in 6-well plates and allowed to recover for 24 h. Subsequently, the cells were treated with the drugs in different concentrations. After 12 h cells were harvested, proteins were isolated, resolved by sodium dodecyl sulfate polyacrylamide gel electrophoresis (SDS/PAGE), and transferred onto a polyvinylidene difluoride membrane for western blotting. The following antibodies were used: ERK1/2 (p44/42) rabbit monoclonal antibody (mAb) (137F5, #4695), phospho-ERK1/2 rabbit mAb (Thr202/Tyr204) (20G11, #4376), phospho-S6 rabbit pAb (Ser240/244, #2215) (Cell Signaling Technology, Beverly, MA, USA), S6 mouse mAb (C-8. #sc-74459) (Santa Cruz Biotechnology, TX, USA) and β-actin mouse mAb (#A5441, Sigma). All primary antibodies were used in 1 : 1000 dilutions (in Tris-buffered saline containing 0.1% Tween20 (TBST) + 3% bovine serum albumin (BSA)). Secondary goat anti-mouse-IgG (Fc specific)-peroxidase antibody (#A0168, Sigma) and horseradish peroxidase(HRP)-labeled mouse anti-rabbit IgG (#sc-2357, Santa Cruz Biotechnology) were used at working dilutions of 1 : 10 000 (in TBST + 1% BSA).

SMILES | impact on cell viability [1] | inhibition of clonogenic cell growth [2] | activity on ERK1/2 and S6 phosphorylation, normoxic vs hypoxic [3]
O=C(O)C(F)(F)F [TFA, trifluoroacetic acid] | no impact on cell viability | – | –
Cc1ccc(C(=O)Nc2ccc(CN3CCN(C)CC3)c(C(F)(F)F)c2)cc1C#Cc1cnc2cccnn12 [ponatinib, reference compound] | – | 95% | equally active under the two oxygen conditions
